The target in assay [1] is T1, Sucrase-isomaltase, intestinal (Rattus norvegicus, UniProt P23739). As to the kind of experiment: Inhibition of Wistar rat small intestine isomaltase after 30 mins.
Assay [2] concerns the target T1, Sucrase-isomaltase, intestinal. As to the kind of experiment: Inhibition of Wistar rat small intestine sucrase after 30 mins.
For assay [3], the species on record is Rattus norvegicus. As to the kind of experiment: Inhibition of Wistar rat small intestine cellobiase at 1000 uM after 30 mins.
The target in assay [4] is Lactase/phlorizin hydrolase (Rattus norvegicus) (UniProt Q02401). As to the kind of experiment: Inhibition of Wistar rat small intestine lactase at 1000 uM after 30 mins.
Chain of Lactase/phlorizin hydrolase (Rattus norvegicus) (Q02401 868-1928 limits assumed): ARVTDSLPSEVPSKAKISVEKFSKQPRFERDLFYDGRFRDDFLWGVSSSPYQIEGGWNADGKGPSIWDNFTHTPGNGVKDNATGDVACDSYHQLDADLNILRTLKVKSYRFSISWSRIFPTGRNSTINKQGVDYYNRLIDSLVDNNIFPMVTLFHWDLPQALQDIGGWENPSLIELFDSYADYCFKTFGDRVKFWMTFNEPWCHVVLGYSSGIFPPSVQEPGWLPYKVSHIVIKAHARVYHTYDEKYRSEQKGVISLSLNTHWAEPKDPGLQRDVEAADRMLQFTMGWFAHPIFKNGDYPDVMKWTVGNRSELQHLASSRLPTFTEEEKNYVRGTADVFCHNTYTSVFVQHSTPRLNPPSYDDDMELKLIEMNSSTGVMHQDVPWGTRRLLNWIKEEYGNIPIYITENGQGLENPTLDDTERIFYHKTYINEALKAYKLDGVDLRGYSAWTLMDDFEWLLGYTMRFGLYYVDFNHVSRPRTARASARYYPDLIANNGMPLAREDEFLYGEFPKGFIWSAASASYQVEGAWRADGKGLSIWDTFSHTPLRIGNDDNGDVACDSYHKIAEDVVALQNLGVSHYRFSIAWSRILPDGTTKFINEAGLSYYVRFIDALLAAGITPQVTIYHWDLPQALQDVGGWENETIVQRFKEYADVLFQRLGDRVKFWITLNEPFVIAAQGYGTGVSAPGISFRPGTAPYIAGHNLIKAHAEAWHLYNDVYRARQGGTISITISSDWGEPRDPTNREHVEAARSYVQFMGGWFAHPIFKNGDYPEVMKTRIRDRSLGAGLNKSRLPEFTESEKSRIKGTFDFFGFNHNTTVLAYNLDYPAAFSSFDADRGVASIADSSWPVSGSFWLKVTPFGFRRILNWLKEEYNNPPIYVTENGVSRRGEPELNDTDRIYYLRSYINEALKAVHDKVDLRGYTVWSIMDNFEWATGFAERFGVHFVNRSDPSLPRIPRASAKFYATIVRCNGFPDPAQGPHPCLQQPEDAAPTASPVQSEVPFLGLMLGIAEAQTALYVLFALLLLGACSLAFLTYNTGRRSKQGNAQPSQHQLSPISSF
The target of assay [5] is Sucrase-isomaltase, intestinal (Rattus norvegicus) (UniProt P23739). The experiment in a line: Inhibition of Wistar rat small intestine isomaltase at 1000 uM after 30 mins.
Chain of Sucrase-isomaltase, intestinal (Rattus norvegicus) (P23739 1-1013 limits assumed): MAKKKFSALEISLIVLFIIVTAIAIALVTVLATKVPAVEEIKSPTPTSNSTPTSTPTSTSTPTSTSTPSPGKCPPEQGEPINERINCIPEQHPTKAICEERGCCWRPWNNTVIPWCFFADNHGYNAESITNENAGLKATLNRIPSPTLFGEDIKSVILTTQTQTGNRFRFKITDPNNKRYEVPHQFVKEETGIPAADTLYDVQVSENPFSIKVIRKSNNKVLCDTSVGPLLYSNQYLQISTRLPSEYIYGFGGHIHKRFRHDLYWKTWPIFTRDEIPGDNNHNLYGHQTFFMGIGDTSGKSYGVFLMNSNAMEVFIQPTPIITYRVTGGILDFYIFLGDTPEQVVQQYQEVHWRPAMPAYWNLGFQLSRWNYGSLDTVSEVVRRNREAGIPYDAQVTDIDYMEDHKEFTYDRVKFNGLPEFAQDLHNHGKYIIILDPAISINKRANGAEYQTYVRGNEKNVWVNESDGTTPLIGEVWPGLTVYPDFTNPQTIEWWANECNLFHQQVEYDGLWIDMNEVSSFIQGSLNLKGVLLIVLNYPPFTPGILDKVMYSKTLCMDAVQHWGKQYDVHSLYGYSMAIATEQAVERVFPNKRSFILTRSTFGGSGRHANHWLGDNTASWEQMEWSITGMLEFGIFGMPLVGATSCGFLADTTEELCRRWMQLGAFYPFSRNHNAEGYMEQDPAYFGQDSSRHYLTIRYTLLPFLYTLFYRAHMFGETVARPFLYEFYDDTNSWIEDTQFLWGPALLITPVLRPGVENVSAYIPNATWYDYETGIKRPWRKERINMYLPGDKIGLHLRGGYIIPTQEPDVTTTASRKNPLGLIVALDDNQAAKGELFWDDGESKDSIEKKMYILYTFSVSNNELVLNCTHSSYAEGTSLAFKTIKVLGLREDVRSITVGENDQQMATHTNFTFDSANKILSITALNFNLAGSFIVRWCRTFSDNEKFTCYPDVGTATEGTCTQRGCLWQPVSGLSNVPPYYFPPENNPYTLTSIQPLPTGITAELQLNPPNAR
Chain of Sucrase-isomaltase, intestinal (Rattus norvegicus) (P23739 1014-1841 limits assumed): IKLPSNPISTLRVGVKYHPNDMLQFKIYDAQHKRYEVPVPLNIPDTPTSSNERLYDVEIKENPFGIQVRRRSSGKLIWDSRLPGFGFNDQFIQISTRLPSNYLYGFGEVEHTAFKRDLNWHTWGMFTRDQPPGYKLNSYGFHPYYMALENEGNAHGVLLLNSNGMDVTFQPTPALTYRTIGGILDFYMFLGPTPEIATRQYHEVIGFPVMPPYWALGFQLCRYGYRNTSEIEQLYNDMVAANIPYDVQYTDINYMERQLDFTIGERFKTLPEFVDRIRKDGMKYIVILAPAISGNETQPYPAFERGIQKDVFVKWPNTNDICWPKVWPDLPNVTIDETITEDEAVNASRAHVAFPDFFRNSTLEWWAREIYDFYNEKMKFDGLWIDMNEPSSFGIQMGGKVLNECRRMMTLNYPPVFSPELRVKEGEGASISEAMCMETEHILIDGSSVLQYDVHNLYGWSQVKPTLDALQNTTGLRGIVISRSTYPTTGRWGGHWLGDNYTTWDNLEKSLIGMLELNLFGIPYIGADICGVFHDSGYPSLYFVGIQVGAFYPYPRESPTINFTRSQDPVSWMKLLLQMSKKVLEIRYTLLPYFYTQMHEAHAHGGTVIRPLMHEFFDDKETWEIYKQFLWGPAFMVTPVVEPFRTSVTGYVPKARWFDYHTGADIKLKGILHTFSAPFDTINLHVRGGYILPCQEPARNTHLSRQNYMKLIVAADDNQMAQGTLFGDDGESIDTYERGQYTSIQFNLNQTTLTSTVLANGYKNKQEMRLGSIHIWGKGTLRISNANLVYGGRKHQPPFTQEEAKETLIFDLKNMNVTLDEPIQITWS
Assay [6] deals with Lysosomal alpha-glucosidase (Rattus norvegicus) (UniProt Q6P7A9). The note with it: Wistar, 1000 uM.
Chain of Lysosomal alpha-glucosidase (Rattus norvegicus) (Q6P7A9 whole entry): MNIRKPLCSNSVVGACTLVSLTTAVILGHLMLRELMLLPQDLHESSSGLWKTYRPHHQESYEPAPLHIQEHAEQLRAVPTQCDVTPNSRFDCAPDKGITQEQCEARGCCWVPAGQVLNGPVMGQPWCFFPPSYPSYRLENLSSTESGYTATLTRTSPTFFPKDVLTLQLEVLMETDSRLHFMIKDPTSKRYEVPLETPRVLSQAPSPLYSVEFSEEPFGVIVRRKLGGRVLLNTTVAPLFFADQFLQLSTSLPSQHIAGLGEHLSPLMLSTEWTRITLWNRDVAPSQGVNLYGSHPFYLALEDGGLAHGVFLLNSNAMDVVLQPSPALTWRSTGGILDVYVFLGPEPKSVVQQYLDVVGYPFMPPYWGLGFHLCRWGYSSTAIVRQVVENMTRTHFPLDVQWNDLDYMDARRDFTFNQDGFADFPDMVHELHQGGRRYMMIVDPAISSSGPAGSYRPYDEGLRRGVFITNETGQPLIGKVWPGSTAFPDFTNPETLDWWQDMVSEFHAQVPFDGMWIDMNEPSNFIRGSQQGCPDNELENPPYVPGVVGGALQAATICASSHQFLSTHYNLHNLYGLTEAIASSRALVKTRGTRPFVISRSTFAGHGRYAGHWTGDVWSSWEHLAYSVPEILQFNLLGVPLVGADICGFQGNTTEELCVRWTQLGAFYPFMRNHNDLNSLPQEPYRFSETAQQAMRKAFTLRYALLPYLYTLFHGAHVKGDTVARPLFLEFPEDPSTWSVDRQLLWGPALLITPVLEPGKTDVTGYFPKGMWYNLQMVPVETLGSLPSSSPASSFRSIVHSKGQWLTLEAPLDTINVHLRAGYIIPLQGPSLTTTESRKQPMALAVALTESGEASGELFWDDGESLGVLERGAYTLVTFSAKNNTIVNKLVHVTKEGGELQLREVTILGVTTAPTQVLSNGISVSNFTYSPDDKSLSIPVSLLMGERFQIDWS
Description: Inhibition of Wistar rat small intestine maltase at 1000 uM after 30 mins

T1 sequence (P23739 1-1013 limits assumed): as the sequence (P23739 1-1013 limits assumed) above
T1 sequence (P23739 1014-1841 limits assumed): as the sequence (P23739 1014-1841 limits assumed) above

For `CCCC[C@@H]1N[C@@H](CO)[C@H](O)[C@H]1O`, the IC50 – broadly, the point on the concentration scale where inhibition reaches its midpoint – in assay [1] worked out at 4.7 µM; in assay [2], 0.032 µM. Moreover, the inhibition in assay [3] and in assay [4] was under 50% each time.
`CC[C@@H]1N[C@@H](CO)[C@H](O)[C@H]1O`: the IC50 in assay [1] was determined as 11 µM; in assay [2], 0.68 µM. Further, the inhibition in assay [3] and in assay [4] was under 50% in each case.
On to `CCCCCCCCCCC[C@@H]1N[C@@H](CO)[C@H](O)[C@H]1O`, for which the inhibition in assay [5], in assay [3] and in assay [4] was under 50% throughout. The same compound returned an IC50 in assay [2] of 13 µM.
For the compound `CCCCC[C@@H]1N[C@@H](CO)[C@H](O)[C@H]1O`, the values for the IC50 in assay [1] and in assay [2] were 18 µM and 0.19 µM, respectively. The inhibition in assay [3] and in assay [4] was under 50% in each case.
On to `CCCCCCCC[C@H]1N[C@@H](CO)[C@H](O)[C@H]1O`, for which the inhibition in assay [5], in assay [3] and in assay [4] was under 50% in each case. Also, half-maximal inhibition in assay [2] (IC50) required 590 µM.
`CCCCCC[C@@H]1N[C@@H](CO)[C@H](O)[C@H]1O`: the figures for the IC50 in assay [1] and in assay [2] were 11 µM and 0.11 µM, respectively. Moreover, the inhibition in assay [3] and in assay [4] was under 50% each time.
Consider `OCCN1C[C@H](O)[C@@H](O)[C@H](O)[C@H]1CO` [MIGLITOL], for which the inhibition in assay [3] and in assay [4] was under 50% in each case.
Consider `CCCCCCCCCC[C@@H]1N[C@@H](CO)[C@H](O)[C@H]1O`, for which the figures for the IC50 in assay [1] and in assay [2] were 606 µM and 1.7 µM, respectively. Moreover, the inhibition in assay [3] and in assay [4] was under 50% each time.
In the case of `CCCCCCCC[C@@H]1N[C@@H](CO)[C@H](O)[C@H]1O`, the IC50 was found to be 75 µM in assay [1] and 0.45 µM in assay [2]. Further, the inhibition in assay [3] and in assay [4] was under 50% in each case.
As to `OCC(CO)N[C@H]1C[C@](O)(CO)[C@@H](O)[C@H](O)[C@H]1O` [VOGLIBOSE], the IC50 in assay [1] came to 5.2 µM; in assay [2], 0.37 µM. Further, the inhibition in assay [3] and in assay [4] was under 50% in each case.
As to `CCCCCCCCC[C@@H]1N[C@@H](CO)[C@H](O)[C@H]1O`, the results for the IC50 in assay [1] and in assay [2] were 171 µM and 1.4 µM, respectively. Also, the inhibition in assay [3] and in assay [4] was under 50% each time.
Consider `CCC[C@@H]1N[C@@H](CO)[C@H](O)[C@H]1O`, for which the IC50 is 47 µM in assay [1] and 0.26 µM in assay [2]. For the same compound, the inhibition in assay [3] and in assay [4] was under 50% each time.
In the case of `C[C@H]1O[C@H](O[C@H]2[C@H](O)[C@@H](O)[C@@H](O[C@H]3[C@H](O)[C@@H](O)C(O)O[C@@H]3CO)O[C@@H]2CO)[C@H](O)[C@@H](O)[C@@H]1N[C@H]1C=C(CO)[C@@H](O)[C@H](O)[C@H]1O` (some centres not stated), the inhibition in assay [5], in assay [3] and in assay [4] was under 50% throughout.
Consider `CCCCCCC[C@@H]1N[C@@H](CO)[C@H](O)[C@H]1O`, for which the results for the IC50 in assay [1] and in assay [2] were 16 µM and 0.24 µM, respectively. Further, the inhibition in assay [3] and in assay [4] was under 50% in each case.
Take `CCCC[C@H]1[C@H](O)[C@@H](O)[C@H](CO)N1CCCC`: the inhibition in assay [5], in assay [3] and in assay [4] was under 50% throughout. Moreover, the IC50 in assay [2] was 8.8 µM.
As for `CCCC[C@H]1N[C@@H](CO)[C@H](O)[C@H]1O`, the inhibition in assay [5], in assay [3], in assay [4] and in assay [6] was under 50% throughout. For the same compound, in assay [2], the IC50 amounted to 392 µM.
